Patent US12064426B2, “Selective inhibitors of ROCK1 and ROCK2 protein kinases and uses thereof” (GENOSCO Inc., priority 2021, dated 2024)
pIC50: −log10 of the molar value.

What was measured:
[1] = molecular target: T1, Recombinant ROCK2 (amino acids 5-554) (Homo sapiens, UniProt O75116); experiment: ROCK inhibition assay, LANCE Ultra TR-FRET kinase assay (ROCK2); format: biochemical; conditions: 4 μM ATP, 50 nM ULight-CREBtide substrate
T1 construct: ROCK2 (amino acids 5-554); by word order, ROCK2 from SignalChem
Procedure, shortened: (§1)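 LANCE Ultra TR-FRET kinase assay with recombinant ROCK1 (aa 1-477) or ROCK2 (aa 5-554), 50 nM ULight-CREBtide and ATP at 1 μM (ROCK1) or 4 μM (ROCK2) in HEPES pH 7.5 with MgCl2, 1 h at room temperature. EDTA stop with Eu anti-phospho-CREB Ser133 antibody; 665/615 nm read gives IC50.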

[2] = molecular target: T2, Recombinant ROCK1 (amino acids 1-477) (Homo sapiens, UniProt Q13464); experiment: ROCK inhibition assay, LANCE Ultra TR-FRET kinase assay (ROCK1); format: biochemical; conditions: 1 μM ATP, 50 nM ULight-CREBtide substrate
T2 construct: Recombinant ROCK1 (amino acids 1-477); by word order, ROCK1 from Carna Biosciences
Procedure, shortened: as §1

T2 sequence (Q13464 1-477): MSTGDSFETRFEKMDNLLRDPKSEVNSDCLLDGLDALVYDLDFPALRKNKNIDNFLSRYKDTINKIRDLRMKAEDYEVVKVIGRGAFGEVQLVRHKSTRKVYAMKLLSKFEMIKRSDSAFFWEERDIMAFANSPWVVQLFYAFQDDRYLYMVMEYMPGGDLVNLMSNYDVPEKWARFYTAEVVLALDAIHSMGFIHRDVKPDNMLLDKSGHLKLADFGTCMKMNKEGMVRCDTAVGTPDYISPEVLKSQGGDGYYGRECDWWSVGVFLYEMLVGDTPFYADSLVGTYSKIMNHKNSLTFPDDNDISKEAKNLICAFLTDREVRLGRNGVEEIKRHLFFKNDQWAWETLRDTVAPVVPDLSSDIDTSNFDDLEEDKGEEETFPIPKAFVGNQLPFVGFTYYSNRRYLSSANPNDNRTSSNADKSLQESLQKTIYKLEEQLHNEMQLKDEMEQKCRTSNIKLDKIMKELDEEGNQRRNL
T1 sequence (O75116 5-554): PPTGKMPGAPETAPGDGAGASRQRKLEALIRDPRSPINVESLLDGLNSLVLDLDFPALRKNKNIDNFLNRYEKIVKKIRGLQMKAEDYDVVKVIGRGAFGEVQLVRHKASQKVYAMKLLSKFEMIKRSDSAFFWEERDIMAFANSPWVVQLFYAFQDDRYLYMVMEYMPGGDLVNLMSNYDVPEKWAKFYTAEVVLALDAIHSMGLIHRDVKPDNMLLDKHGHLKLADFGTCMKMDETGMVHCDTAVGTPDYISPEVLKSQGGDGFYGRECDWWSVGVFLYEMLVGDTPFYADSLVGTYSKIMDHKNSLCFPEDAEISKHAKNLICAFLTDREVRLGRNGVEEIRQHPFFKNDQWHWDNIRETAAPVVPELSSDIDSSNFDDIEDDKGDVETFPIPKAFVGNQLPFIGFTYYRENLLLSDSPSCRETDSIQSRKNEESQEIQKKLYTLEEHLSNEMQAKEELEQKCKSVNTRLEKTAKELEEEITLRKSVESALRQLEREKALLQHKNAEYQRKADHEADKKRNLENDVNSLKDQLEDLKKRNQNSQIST

SMILES | pIC50 [1] | pIC50 [2]
CN1CCC(NC(=O)c2cc(F)cc(Cn3ccc4cc(-c5ccnn5C)ccc4c3=O)c2)CC1 [Compound 176] | 7.00 to 8.00 | 7.00 to 7.96
O=C(NCC1CCN(C2CC2)CC1)c1cc(F)cc(Cn2ccc3cc(N4CCOCC4)ccc3c2=O)c1 [Compound 226] | 7.00 to 8.00 | 6.30 to 7.00
[2H]C([2H])([2H])NC(=O)c1cccc([C@@H](C)n2cnc3cc(-c4cn[nH]c4C(F)(F)F)ccc3c2=O)c1 [Compound 443] | > 8.00 | 7.00 to 7.96
CC(C)NC(=O)c1cc(F)cc(Cn2ccc3cc(-c4c[nH]nc4Br)ncc3c2=O)c1 [Compound 272] | > 8.00 | > 8.00
CNC(=O)c1cccc(Cn2cnc3cc(-c4ccnc(N)c4)ccc3c2=O)c1 [Compound 433] | 7.00 to 8.00 | 6.30 to 7.00
CNC(=O)c1cccc(Cn2ccc3cc(-c4cn[nH]c4C(F)F)ncc3c2=O)c1 [Compound 237] | > 8.00 | 7.00 to 7.96
O=C(NCC1CCN(CC(F)F)CC1)c1cccc(Cn2ccc3cc(N4CCOCC4)ccc3c2=O)c1 [Compound 219] | 7.00 to 8.00 | 6.30 to 7.00
CC(=O)Nc1cc(F)cc(Cn2ccc3cc(-c4conc4C)ccc3c2=O)c1 [Compound 351] | 7.00 to 8.00 | 6.30 to 7.00
CNC(=O)c1cccc(Cn2cc(C(C)O)c3cc(-c4c[nH]nc4C(F)F)ccc3c2=O)c1 (stereo not drawn) [Compound 535] | > 8.00 | > 8.00
C[C@H](c1cccc(C(=O)N[C@H]2C[C@@H](O)C2)c1)n1cnc2cc(-c3ccnn3C)ccc2c1=O [Compound 478] | > 8.00 | 7.00 to 7.96
COc1cc(F)cc(Cn2cnc3cc(-c4c[nH]nc4Cl)ccc3c2=O)c1 [Compound 361] | > 8.00 | 7.00 to 7.96
C[C@H](c1cccc(C(=O)NC2COC2)c1)n1cnc2cc(-c3cn[nH]c3Br)ccc2c1=O [Compound 514] | > 8.00 | 7.00 to 7.96
CN1CCC(CNC(=O)c2cccc(Cn3cnc4cc(-c5cn[nH]c5Cl)ccc4c3=O)c2)CC1 [Compound 410] | > 8.00 | > 8.00
CNC(=O)c1cccc([C@@H](C)n2cnc3cc(-c4conc4C)ncc3c2=O)c1 [Compound 572] | 7.00 to 8.00 | 6.30 to 7.00
CC(=O)Nc1cccc(Cn2ccc3cc(-c4c[nH]nc4C(F)(F)F)ccc3c2=O)c1 [Compound 337] | 7.00 to 8.00 | 6.30 to 7.00
COc1cccc(Cn2ccc3cc(-c4ccnn4C)ccc3c2=O)c1 [Compound 11] | > 8.00 | 7.00 to 7.96
CC(C)N1CCC(CNC(=O)c2cc(F)cc(Cn3ccc4cc(N5CCOCC5)ccc4c3=O)c2)CC1 [Compound 224] | 7.00 to 8.00 | 6.30 to 7.00
CNC(=O)c1cccc(Cn2ccc3cc(C4=CCOC4)ccc3c2=O)c1 [Compound 304] | < 6.30 | < 6.30
Cc1nocc1-c1ccc2c(=O)n(Cc3cccc(NC(=O)c4ccc(F)cc4)c3)ccc2c1 [Compound 349] | 7.00 to 8.00 | 7.00 to 7.96
O=C(NCC1COC1)c1cccc(Cn2ccc3cc(-c4c[nH]nc4C(F)F)ccc3c2=O)c1 [Compound 58] | > 8.00 | 7.00 to 7.96

SMILES | pIC50 [1] | pIC50 [2]
CN1CCC(CNC(=O)c2cccc(Cn3ccc4cc(N5CCOCC5)ccc4c3=O)c2)CC1 [Compound 218] | 7.00 to 8.00 | 6.30 to 7.00
Cc1nocc1-c1ccc2c(=O)n(Cc3cc(F)cc(C(=O)NCCN4CCN(C)CC4)c3)ccc2c1 [Compound 144] | > 8.00 | 7.00 to 7.96
[2H]C([2H])([2H])NC(=O)c1cc(F)cc([C@@H](C)n2cnc3cc(-c4cn[nH]c4C(F)(F)F)ccc3c2=O)c1 [Compound 455] | > 8.00 | 7.00 to 7.96
CNC(=O)c1cccc(C(C)n2cc(CCN(C)C)c3cc(-c4cn[nH]c4C(F)(F)F)ccc3c2=O)c1 (stereo not drawn) [Compound 563] | > 8.00 | 7.00 to 7.96
CNC(=O)c1cccc(C(C)n2ccc3cc(-c4cn[nH]c4C(F)F)ccc3c2=O)c1 (stereo not drawn) [Compound 287] | > 8.00 | 7.00 to 7.96
Cc1[nH]ncc1-c1ccc2c(=O)n(C(CN)c3cccc(Cl)c3)cnc2c1 (stereo not drawn) [Compound 494] | > 8.00 | > 8.00
Cn1nccc1-c1ccc2c(=O)n(Cc3cccc(C(=O)NC4CCOCC4)c3)ccc2c1 [Compound 104] | 7.00 to 8.00 | 6.30 to 7.00
CNC(=O)c1cccc(Cn2cc(CC(C)O)c3cc(-c4cn[nH]c4C(F)F)ccc3c2=O)c1 (stereo not drawn) [Compound 559] | > 8.00 | 7.00 to 7.96
Cc1nocc1-c1ccc2c(=O)n(Cc3cc(F)cc(C(=O)NCC4CCNCC4)c3)ccc2c1 [Compound 150] | > 8.00 | 7.00 to 7.96
Cc1n[nH]cc1-c1ccc2c(=O)n(Cc3cccc(C(=O)NCc4cccc(NS(C)(=O)=O)c4)c3)ccc2c1 [Compound 33] | 6.30 to 7.00 | < 6.30
O=C(Nc1cccc(Cn2ccc3cc(-c4c[nH]nc4Cl)ccc3c2=O)c1)C1COC1 [Compound 346] | 7.00 to 8.00 | 6.30 to 7.00
CNC(=O)c1cc(Cn2ccc3cc(-c4cn[nH]c4C(F)(F)F)ccc3c2=O)ccc1F [Compound 284] | 7.00 to 8.00 | 6.30 to 7.00
CNC(=O)c1cccc([C@@H](C)n2cnc3cc(-c4ccnc(N)c4)ccc3c2=O)c1 [Compound 481] | 7.00 to 8.00 | 6.30 to 7.00
CNC(=O)c1cccc(Cn2cc(CC(C)O)c3cc(-c4c[nH]nc4N)ccc3c2=O)c1 (stereo not drawn) [Compound 562] | > 8.00 | 7.00 to 7.96
Cc1nocc1-c1ccc2c(=O)n(Cc3cc(F)cc(C(=O)Nc4nc5c(s4)CCN(C(C)C)C5)c3)ccc2c1 [Compound 159] | > 8.00 | 7.00 to 7.96
C[C@H](c1cccc(C(=O)NCCO)c1)n1cnc2cc(-c3cn[nH]c3C(F)(F)F)ccc2c1=O [Compound 453] | 7.00 to 8.00 | 7.00 to 7.96
O=C(NCC1COC1)c1cc(F)cc(Cn2ccc3cc(-c4c[nH]nc4C(F)(F)F)ccc3c2=O)c1 [Compound 136] | > 8.00 | 7.00 to 7.96
CC(C)N1CCC(NC(=O)c2cc(F)cc(Cn3ccc4cc(-c5ccnn5C)ccc4c3=O)c2)CC1 [Compound 175] | 7.00 to 8.00 | 6.30 to 7.00
CC(c1cccc(O)c1)n1ccc2cc(-c3c[nH]nc3C(F)(F)F)ccc2c1=O (stereo not drawn) [Compound 8] | 7.00 to 8.00 | 6.30 to 7.00
CN1CCc2cc(NC(=O)c3cccc(Cn4ccc5cc(-c6ccnn6C)ccc5c4=O)c3)ccc2C1 [Compound 124] | > 8.00 | > 8.00

SMILES | pIC50 [1] | pIC50 [2]
Cn1ccc(NC(=O)c2cccc(Cn3ccc4cc(-c5cn[nH]c5C(F)(F)F)ccc4c3=O)c2)n1 [Compound 43] | > 8.00 | 7.00 to 7.96
Cc1nocc1-c1ccc2c(=O)n(Cc3cccc(C(=O)Nc4ccc5c(c4)CNCC5)c3)ccc2c1 [Compound 100] | > 8.00 | > 8.00
Cc1n[nH]cc1-c1ccc2c(=O)n(Cc3cccc(O)c3)ccc2c1 [Compound 5] | 7.00 to 8.00 | 6.30 to 7.00
COc1cccc(C(CO)n2cnc3cc(-c4cn[nH]c4C)ccc3c2=O)c1 (stereo not drawn) [Compound 489] | 7.00 to 8.00 | 7.00 to 7.96
CC(=O)Nc1cccc(Cn2ccc3cc(-c4conc4C)ccc3c2=O)c1 [Compound 347] | 7.00 to 8.00 | 6.30 to 7.00
Cn1nccc1-c1ccc2c(=O)n(Cc3cc(F)cc(C(=O)NCC4CCNCC4)c3)ccc2c1 [Compound 173] | > 8.00 | 7.00 to 7.96
O=C(NCCc1cccc(F)n1)c1cccc(Cn2ccc3cc(-c4c[nH]nc4C(F)(F)F)ccc3c2=O)c1 [Compound 54] | > 8.00 | 7.00 to 7.96
O=C(NCC1CCOCC1)c1cccc(Cn2cnc3cc(-c4cn[nH]c4C(F)(F)F)ccc3c2=O)c1 [Compound 379] | > 8.00 | 7.00 to 7.96
O=C(NCC1CCOCC1)c1cc(F)cc(Cn2ccc3cc(-c4c[nH]nc4C(F)F)ncc3c2=O)c1 [Compound 276] | > 8.00 | 7.00 to 7.96
Cc1nocc1-c1cc2ccn(Cc3cc(F)cc(C(=O)NCCN4CCOCC4)c3)c(=O)c2cn1 [Compound 267] | > 8.00 | 7.00 to 7.96
O=C(N[C@H]1C[C@H](O)C1)c1cc(F)cc(Cn2ccc3cc(N4CCOCC4)ccc3c2=O)c1 [Compound 210] | 6.30 to 7.00 | < 6.30
NCC(c1cccc(C(N)=O)c1)n1cnc2cc(-c3ccnc(N)c3)ccc2c1=O (stereo not drawn) [Compound 506] | 6.30 to 7.00 | < 6.30
[2H]C([2H])([2H])NC(=O)c1cccc(Cn2ccc3cc(-c4cn[nH]c4C(F)F)ncc3c2=O)c1 [Compound 238] | > 8.00 | 7.00 to 7.96
Cn1nccc1-c1ccc2c(=O)n(Cc3cccc(C(=O)Nc4ccc5c(c4)CN(C4CC4)CC5)c3)ccc2c1 [Compound 126] | > 8.00 | 7.00 to 7.96
Cn1nccc1-c1ccc2c(=O)n(Cc3cc(F)cc(C(=O)NCc4ccc(F)nc4)c3)ccc2c1 [Compound 174] | > 8.00 | 7.00 to 7.96
O=C(NCc1ccnc(F)c1)c1cccc(Cn2cnc3cc(-c4cn[nH]c4C(F)F)ccc3c2=O)c1 [Compound 397] | > 8.00 | 7.00 to 7.96
Nc1cc(-c2ccc3c(=O)n(C(CO)c4cccc(Cl)c4)cnc3c2)ccn1 (stereo not drawn) [Compound 484] | 7.00 to 8.00 | 6.30 to 7.00
Cc1nocc1-c1ccc2c(=O)n(Cc3cccc(C(=O)NCC4CCN(C5CC5)CC4)c3)ccc2c1 [Compound 80] | 7.00 to 8.00 | 6.30 to 7.00
Cn1nccc1-c1ccc2c(=O)n(Cc3cccc(C(=O)N[C@H]4CC[C@@H](O)CC4)c3)cnc2c1 [Compound 429] | > 8.00 | 7.00 to 7.96
Cn1nccc1-c1ccc2c(=O)n(Cc3cccc(C(=O)NC4CCNCC4)c3)ccc2c1 [Compound 105] | > 8.00 | > 8.00
